The values that follow come from patent US20100021392A1, “Vapor-phase application of spinosyn for the control of pest, and formulations and products utilizing the same” (priority 2006, published 2010).

A short description of data set [1]: Evaporation test of spinosad from impregnated paper mats on mat diffusers (HPLC). In kind it is physicochemical. Conditions: Example 1 mat, initial 80 mgs per mat; for Percentage of Spinosad Evaporated: 8 h. As for the experimental part: Paper mats having dimensions of 35 mm (length)×21.5 mm (width)×2.5 mm (thickness) were then gradually impregnated with 0.84-1.70 grams of the above upper phase mixture (depending on its content in spinosad) so as to have approximately 80 mgs of pure spinosad per mat. The mats were left at a temperature of approximately 30° C. for 3 hours during which time most of the ethyl alcohol was evaporated. Next the mats were closed within foil comprising metallized polyethylene terepthalate PET 12 μm/adhesive/PET 35 μm. The mats were allowed to rest for 24 hours to allow for complete spread of the liquid material within the paper. Evaporation tests were then run as follows:
The foil was opened and a mat was removed. The mat was checked by HPLC to confirm its spinosad content. As was theoretically expected, 80 mgs of pure spinosad per mat were found. Four mats of this batch were then placed on common mat diffusers having a temperature ranging from 130° C. to 160° C. The amount of spinosad remaining on the mat was checked after each of 2, 4, and 8 hours of diffuser operation.
The foil was opened and a mat was removed. The mat was checked by HPLC to confirm the content of spinosad. As was theoretically expected, 11 mgs of pure spinosad per mat were found. Four mats were then placed on common mat diffusers having a temperature ranging from 130° C. to 160° C. The amount of spinosad remaining on the mat was checked after each of 2, 4, and 8 hours of operation.
The foil was opened and a mat was removed. The mat was checked by HPLC to confirm the content of spinosad. As was theoretically expected, 10 mgs of pure spinosad per mat was found. Four mats were then placed on common mat diffusers having a temperature ranging from 130° C. to 160° C. The amount of spinosad remaining on the mat was checked after each of 2, 4, and 8 hours of operation.

Data set [2] in a line: Evaporation of liquid formulation from bottle with ceramic wick on diffuser. In kind it is physicochemical. Particulars: equal to 1 gram of mixture, diffuser 125°-150° C. The method, then: PET plastic bottles were then each filled with 24 grams of the above formulation. A plastic insert and ceramic wick were then placed in the opening of the bottle and the bottle was screwed onto a common diffuser. The diffuser was operated at a temperature ranging from 125°-150° C. […] The remainder of the mixture in the bottle was then analyzed by HPLC. […] The bottle was then plugged off and stored for 12 additional hours. The bottle was again screwed onto a common diffuser, and the diffuser was operated at a temperature of 125°-150° C.

In data set [3] the test system is mammals. Conditions: cited from earlier work.
For data set [4], the system named is mammals. Conditions: in vivo; cited from earlier work.
For the next data set, the system named is birds. Conditions: in vivo; cited from earlier work.
For the next data set, the system named is fish. Conditions: in vivo; cited from earlier work.
The conditions of data set [5]: at 25° C.; cited from earlier work.

In the case of Spinosad, the figures for the “Percentage of Spinosad Evaporated” value in data set [1] (diffuser temperature 130° C.), in data set [1] (diffuser temperature 140° C.) and in data set [1] (diffuser temperature 160° C.) were 75%, 85% and 98%, respectively. Further, the figures for the “Quantity of Spinosad Remained on mat after 8 h of operation” value in data set [1] (diffuser temperature 130° C.), in data set [1] (diffuser temperature 140° C.) and in data set [1] (diffuser temperature 160° C.) were 20 mgs, 12 mgs and 2 mgs, respectively. For the same compound, in data set [2], the “pure spinosad evaporated after 8 hours” value was 20 mgs. Also, the chronic toxicology findings result with mammals [3] was “not carcinogenic, teratogenic, mutagenic, or neurotoxic”. For the same compound, the toxicity to mammals entry with mammals [4] is “relatively low”. For the same compound, the toxicity to birds entry in the data set with birds is reported as “relatively low”. Further, the toxicity to fish result with fish is “only slightly toxic”.

Consider `CC[C@H]1CCC[C@H](O[C@H]2CC[C@H](N(C)C)[C@@H](C)O2)[C@@H](C)C(=O)C2=C[C@@H]3[C@@H](C=C[C@@H]4C[C@@H](O[C@@H]5O[C@@H](C)[C@H](OC)[C@@H](OC)[C@H]5OC)C[C@@H]34)[C@@H]2CC(=O)O1` [spinosyn A], for which the vapor pressure in data set [5] is given as 2.4 ×10^−10 mmHg.
